Columns and labels:
Hs578t cells = assay: Annexin V/PI flow cytometry, Hs578t; type: cell-based, human; settings: IC50 concentration; 24 h
Description: In an embodiment, to understand the mechanisms leading to cell death, cells were studied for the induction of apoptosis by flow cytometry. […] Externalization of phosphatidylserine occurs during the early apoptotic events. While annexin V binds to phosphatidylserine, PI stains only cells that have lost their membrane integrity, an experimental procedure which allows the discrimination between viable cells, early apoptotic cells, late apoptotic/necrotic cells or necrotic cells.
In an embodiment, MCF-7, Hs578t and 786-O cells were seeded in 6-well culture plates and allowed to adhere over 18-20 hours in a complete DMEM (for MCF-7 and Hs578t cells) and complete RPMI (for 786-O cells) medium to detect apoptosis via flow cytometry analysis. […] Triplicates were performed in each experiment. Floating and adherent cells were collected and combined by centrifugation. Elimination of the supernatant was followed by addition of 1 mL of Binding Buffer. 8 μL FITC annexin V (556419, BD Pharmingen) and 30 μl of PI (50 μg/mL, P1304MP, Invitrogen) were added to the cell pellet. Samples were incubated in the dark for 15 min at room temperature. A further 200 μL of Binding Buffer was added to each sample. PI signal was measured using FACS LSRII flow cytometer (BD Biosciences®) with 488 nm excitation laser. The annexin V signal was collected through a 488 nm blocking filter, a 550 nm long-pass dichroic with a 525 nm band pass. Signals were captured and FACS Diva was used as the acquisition software. The percentage of cells in each phase was analysed using the FlowJo 7.6 (Tree Star®) software. Three independent biological replicates were performed.

[1] = system: A498 rapamycin-resistant cells; assay: BrdU proliferation assay, A498 rapamycin-resistant; type: cell-based; settings: 24 and 48 hours, IC50 and ½IC50
glioma cell line GL18 = assay: Cell viability MTS assay, GL18; type: cell-based; settings: Homo sapiens, 72 hours
Method: (§1) In an embodiment, the antiproliferative activity of compounds MC408, MC409, MC421 and MC406 was further determined against glioma cell lines (U87, GAMG and GL18) and acute leukemia cell lines (HL-60, KG-1 and Jurkat). This was done in order to evaluate if the compounds presented an equally interesting anticancer profile in other cancer cell models. Cell viability was determined using the MTS assay, after exposure of the cells to the respective compounds for 72 hours at appropriate concentration ranges to determine the respective IC50 values.
(§2) In an embodiment, three human breast cancer cell lines Hs578T, MDA-MB-468 and MCF-7, and a normal breast cell line MCF-10A, were obtained from ATCC (American Type Culture Collection). The cancer cell lines were cultured in Dulbecco's modified Eagle medium, 4.5 g/l glucose (DMEM, Gibco) supplemented with 10% heating inactivated Fetal Bovine Serum (FBS, Gibco) and 1% antibiotic solution (Penicillin-Streptomycin, Gibco). The normal cell line was cultured in Dulbecco's Modified Eagle Medium: Nutrient Mixture F-12 (DMEM/F12, Gibco) supplemented with 5% heating inactivated FBS (Gibco), 1% antibiotic solution (Penicillin-Streptomycin, Gibco), 1% steroid hormone (Hydrocortisone, Sigma-Aldrich), 0.1% peptide hormone (Insulin, Sigma-Aldrich) and 0.01% protein complex (Cholera Toxin, Gibco). Two distinct human acute myeloid leukemia (AML) cell lines, HL-60 (FAB M2) and KG-1 (erythroleukemia-FAB M6), and one human lymphoblastic leukemia (ALL) cell line, Jurkat (T cell type), were also used. These three cell lines were obtained from German Collection of Microorganisms and Cell cultures (DMSZ®, Deutsche Sammlung von Mikroorganismen and Zellkulturen in German). Cells were cultured in RPMI 1640 medium (Biochrom®-Merck Millipore) supplemented with 10% heating inactivated FBS (Biochrom®-Merck Millipore) and 1% antibiotic/antimitotic mixture (Invitrogen®). Three human glioblastoma (GBM) cell line models, two established and commercially available cell lines (U87MG and GAMG, kind gift from Rui M. Reis) and one primary GBM culture (GLIB) were also used. GBM cells were cultures in DMEM (Biochrom-Merck Millipore), all supplemented with 10% FBS. The Renal cell carcinoma cell lines A498, 786-O, Caki-2 and HK2 were obtained from ATCC. The cancer cell line A498 was cultured in MEM medium (Biochrom®-Merck Millipore), 786-O was cultured in RPMI 1640 medium (Biochrom®-Merck Millipore), Caki-2 was cultured in Mc Coys medium (Biochrom®-Merck Millipore) and HK2 was cultured in RPMI 1640 medium (Biochrom®-Merck Millipore). All the media were supplemented with 10% heat inactivated FBS (Biochrom®-Merck Millipore) and 1% antibiotic/antimitotic mixture (Invitrogen®). All cells were grown in a humidified incubator at 37° C. and 5% CO2. […]

[2] = system: acute leukemia cell line HL-60; assay: Cell viability MTS assay, HL-60; type: cell-based; settings: Homo sapiens, 72 hours
Method: as §1, §2

[3] = system: TNBC cell line MDA-MB-468; assay: Cell viability assay (MTS), MDA-MB-468; type: cell-based; settings: Homo sapiens, 72 h incubation
Description: In an embodiment, for a comparison study, monomers and respective dimers were selected and further evaluated in Hs578t and MDA-MB-468 breast cell lines. […] These cell lines correspond to the basal-like subtype of breast cancer, included in the known triple negative subtype, since they are negative for Estrogen receptor (ER), progesterone receptor (PR) and Human epidermal growth factor receptor 2 (HER2) molecular markers. The clinical behaviour of these breast cancer subtype is very aggressive and there is still no specific molecular therapy available.
as §2

[4] = system: acute leukemia cell line Jurkat; assay: Cell viability MTS assay, Jurkat; type: cell-based; settings: Homo sapiens, 72 hours
Method: as §1, §2

glioma cell line GAMG = assay: Cell viability MTS assay, GAMG; type: cell-based; settings: Homo sapiens, 72 hours
Method: as §1
as §2, with “used.” for “used. GBM cells were cultures in DMEM (Biochrom-Merck Millipore), all supplemented with 10% FBS. The Renal cell carcinoma cell lines A498, 786-O, Caki-2 and HK2 were obtained from ATCC. The cancer cell line A498 was cultured in MEM medium (Biochrom®-Merck Millipore), 786-O was cultured in RPMI 1640 medium (Biochrom®-Merck Millipore), Caki-2 was cultured in Mc Coys medium (Biochrom®-Merck Millipore) and HK2 was cultured in RPMI 1640 medium (Biochrom®-Merck Millipore). All the media were supplemented with 10% heat inactivated FBS (Biochrom®-Merck Millipore) and 1% antibiotic/antimitotic mixture (Invitrogen®). All cells were grown in a humidified incubator at 37° C. and 5% CO2.”

[5] = system: Caki-2 cediranib-resistant cells; assay: BrdU proliferation assay, Caki-2 cediranib-resistant; type: cell-based; settings: 24 and 48 hours; IC50 and ½IC50; drug-resistant
Caki-2 parental cells = assay: BrdU proliferation assay, Caki-2 parental; type: cell-based; settings: 24 and 48 hours, IC50 and ½IC50
[6] = system: acute leukemia cell line KG-1; assay: Cell viability MTS assay, KG-1; type: cell-based; settings: Homo sapiens, 72 hours
Method: as §1, §2

| SMILES | induction of cell death by apoptosis (annexin V/PI) (Hs578t cells) | effect on cell proliferation (BrdU) [1] | IC50 (glioma cell line GL18) [µM] | IC50 [2] [µM] | IC50 [3] [nM] | IC50 [4] [µM] | IC50 (glioma cell line GAMG) [µM] | effect on cell proliferation (BrdU) [5] | effect on cell proliferation (BrdU) (Caki-2 parental cells) | IC50 [6] [µM] |
| --- | --- | --- | --- | --- | --- | --- | --- | --- | --- | --- |
| COc1cccc2c1Oc1nc(-c3ccc(Br)cc3)[nH]c1C2C1c2cccc(OC)c2Oc2nc(-c3ccc(Br)cc3)[nH]c21 (stereo not drawn) [MC421, 2,2′-bis(4-bromophenyl)-5,5′-dimethoxy-1,1,9,9′-tetrahydro-9,9′-bichromeno[2,3-]imidazoles] | inducing cell death by apoptosis (early apoptosis) | significant decrease in cell proliferation | 0.2 | 0.25 | 440 | 0.18 | 0.079 | decrease cell proliferation | decrease cell proliferation | 0.93 |
| COc1cccc2c1Oc1nc(-c3ccccc3)[nH]c1C2 [MC350, 5-methoxy-2-phenyl-3,9-dihydrochromeno[2,3-d]imidazoles] |  |  |  |  |  |  |  | decrease cell proliferation | decrease cell proliferation |  |
| COc1cccc2c1Oc1nc(-c3ccc(Br)cc3)[nH]c1C2 [MC408, 2-(4-bromophenyl)-5-methoxy-3,9-dihydrochromeno[2,3-d]imidazoles] | inducing cell death by apoptosis (early apoptosis) | significant decrease in cell proliferation | 1.6 | 0.57 | 27 | 0.19 |  |  |  | 0.64 |
| COc1cccc2c1Oc1nc(-c3ccc(F)cc3)[nH]c1C2 [MC409, 2-(4-fluorophenyl)-5-methoxy-3,9-dihydrochromeno[2,3-d]imidazoles] | induced cell death by apoptosis |  | 0.6 | 0.65 | 120 | 0.37 | 0.43 |  |  | 1.02 |
| COc1cccc2c1Oc1nc(-c3ccc(O)cc3)[nH]c1C2 [MC413, 4-(5-methoxy-3,9-dihydrochromeno[2,3-d]imidazol-2-yl)phenol] |  | significant decrease in cell proliferation |  |  |  |  |  | decrease cell proliferation | decrease cell proliferation |  |
| COc1cccc2c1Oc1nc(-c3ccc(F)cc3)[nH]c1C2C1c2cccc(OC)c2Oc2nc(-c3ccc(F)cc3)[nH]c21 (stereo not drawn) [MC406, 2,2′-bis(4-fluorophenyl)-5,5′-dimethoxy-1,1,9,9′-tetrahydro-9,9′-bichromeno[2,3-]imidazoles] | induced cell death by apoptosis |  | 0.3 | 0.65 | 320 | 0.12 | 0.22 |  |  | 1.01 |

— US12391701B2, “Chromene-based compounds, methods and uses thereof” (University of Minho, priority 2019, dated 2025)
